Reference: ChEMBL document CHEMBL3611986, “Reversal of P-gp and BCRP-mediated MDR by tariquidar derivatives” (Eur J Med Chem, 2015)
Active and inactive are the calls of the source. The rule behind the calls is not given here.

Key:
[1] = system: HCT-116; assay: Cytotoxicity against human HCT116 cells assessed as cell viability after 48 hrs by MTT assay; format: cell-based; details: HCT-116, 48 h
[2] = system: SW-620; assay: Cytotoxicity against human SW620 cells assessed as cell viability after 48 hrs by MTT assay; format: cell-based; details: SW-620, 48 h
[3] = Cytotoxicity against human SW620/AD300 cells assessed as cell viability after 48 hrs by MTT assay; format: cell-based; details: SW-620, 48 h
[4] = Cytotoxicity against human CCD-18Co cells assessed as cell viability after 48 hrs by MTT assay; format: cell-based
[5] = Cytotoxicity against human HFE cells assessed as cell viability after 72 hrs by MTT assay; format: cell-based
[6] = system: Hepatocyte; assay: Cytotoxicity against rat hepatocytes assessed as cell viability after 72 hrs by MTT assay; format: cell-based; details: for Activity: rat, hepatocytes; for IC50: Rattus norvegicus, Hepatocyte
[7] = molecular target: T1, ATP-dependent translocase ABCB1 (Homo sapiens, UniProt P08183); assay: (§1) Inhibition of p-glycoprotein-mediated rhodamine-123 efflux in human K562/p-gp cells at 0.5 uM after 1 hr by flow cytometry relative to tariquidar; format: cell-based; details: 1 h, 0.5 µM
[8] = molecular target: T1, ATP-dependent translocase ABCB1; assay: Inhibition of p-glycoprotein-mediated rhodamine-123 efflux in human K562/p-gp cells after 1 hr by flow cytometry; format: cell-based
[9] = system: K562; assay: Effect on rhodamine-123 efflux in wild type human K562 cells at 0.5 uM after 1 hr by flow cytometry; format: ADME, cell-based; details: k562, 1 h
[10] = molecular target: T1, ATP-dependent translocase ABCB1; assay: Inhibition of p-glycoprotein-mediated doxorubicin efflux in human K562/p-gp cells at 1 uM after 1 hr by flow cytometry; format: cell-based
[11] = molecular target: Multidrug resistance-associated protein 1 (Homo sapiens, UniProt P33527); assay: Inhibition of MRP1 (unknown origin)-mediated calcein-AM efflux expressed in HEK293/MRP1 cells at 0.5 uM after 1 hr by flow cytometry; format: cell-based; details: hek293/mrp1, 1 h
[12] = Potentiation of paclitaxel-induced cytotoxicity against human LCC6 cells at 200 nM after 72 hrs by SRB assay relative to control; format: functional
[13] = molecular target: T1, ATP-dependent translocase ABCB1; assay: Inhibition of p-glycoprotein in human LCC6/MDR cells assessed as increase of paclitaxel-induced cytotoxicity at 200 nM after 72 hrs by SRB assay relative to control; format: cell-based; details: 0.2 µM
[14] = Cytotoxicity against human LCC6 cells at 200 nM after 72 hrs by SRB assay; format: cell-based; details: lcc6, 72 h, 0.2 µM
[15] = Cytotoxicity against human LCC6 cells expressing p-glycoprotein at 200 nM after 72 hrs by SRB assay; format: cell-based; details: lcc6, 72 h, 0.2 µM
[16] = system: K562; assay: Induction of UIC2 antibody binding to p-glycoprotein in human K562 cells at 0.5 uM preincubated for 10 mins followed by antibody addition measured after 45 mins by flow cytometry relative to tariquidar; format: cell-based
[17] = species: Homo sapiens; assay: Inhibition of p-glycoprotein (unknown origin) expressed in High five insect cell membranes assessed as ATP hydrolysis after 20 mins by colorimetric ATPase assay
[18] = molecular target: P-glycoprotein (ABCB1) (Homo sapiens, UniProt P08183); assay: as §1; format: cell-based; details: K562/p-gp cells, probe rhodamine-123
[19] = molecular target: T2, Broad substrate specificity ATP-binding cassette transporter ABCG2 (Homo sapiens, UniProt Q9UNQ0); assay: (§2) Inhibition of BCRP-mediated pheophorbide-A efflux in human K562/BCRP cells at 0.5 uM after 1 hr by flow cytometry; format: cell-based; details: k562/bcrp, 1 h, 0.5 µM
T2 sequence (Q9UNQ0 whole entry): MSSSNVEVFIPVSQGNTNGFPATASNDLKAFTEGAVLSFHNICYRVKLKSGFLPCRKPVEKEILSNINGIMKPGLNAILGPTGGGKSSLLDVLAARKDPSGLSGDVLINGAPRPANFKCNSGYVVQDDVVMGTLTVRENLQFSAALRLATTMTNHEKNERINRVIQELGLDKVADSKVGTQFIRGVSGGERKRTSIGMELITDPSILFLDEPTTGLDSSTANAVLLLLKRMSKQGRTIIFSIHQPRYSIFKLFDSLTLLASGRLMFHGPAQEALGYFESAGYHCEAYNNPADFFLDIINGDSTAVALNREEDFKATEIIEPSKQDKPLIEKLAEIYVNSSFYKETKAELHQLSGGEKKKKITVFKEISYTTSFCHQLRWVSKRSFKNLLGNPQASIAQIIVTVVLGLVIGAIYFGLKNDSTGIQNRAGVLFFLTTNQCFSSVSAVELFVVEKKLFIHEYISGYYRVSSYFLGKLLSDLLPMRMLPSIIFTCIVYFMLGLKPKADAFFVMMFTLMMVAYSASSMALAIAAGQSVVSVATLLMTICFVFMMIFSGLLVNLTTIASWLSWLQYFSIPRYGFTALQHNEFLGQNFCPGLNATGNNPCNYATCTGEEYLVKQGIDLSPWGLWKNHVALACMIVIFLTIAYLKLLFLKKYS

[20] = system: MCF7; assay: Potentiation of mitoxantrone-induced cytotoxicity against human MCF7 cells at 200 nM after 72 hrs by SRB assay relative to control; format: functional
[21] = molecular target: T2, Broad substrate specificity ATP-binding cassette transporter ABCG2; assay: Inhibition of BCRP in human MCF-7 FLV1000 cells assessed as increase of mitoxantrone-induced cytotoxicity at 200 nM after 72 hrs by SRB assay relative to control; format: cell-based; details: 0.2 µM
[22] = system: HepG2; assay: Potentiation of doxorubicin-induced cytotoxicity against human HepG2 cells at 200 nM after 72 hrs by SRB assay relative to control; format: functional
[23] = molecular target: T1, ATP-dependent translocase ABCB1; assay: Inhibition of p-glycoprotein in human HepG2 cells assessed as increase of doxorubicin-induced cytotoxicity at 200 nM after 72 hrs by SRB assay relative to control; format: cell-based; details: hepg2, 72 h, 0.2 µM
[24] = system: SW-620; assay: Potentiation of doxorubicin-induced cytotoxicity against human SW620 cells at 200 nM after 72 hrs by SRB assay relative to control; format: functional
[25] = molecular target: T1, ATP-dependent translocase ABCB1; assay: Inhibition of p-glycoprotein in human SW620/AD300 cells assessed as increase of doxorubicin-induced cytotoxicity at 200 nM after 72 hrs by SRB assay relative to control; format: cell-based; details: sw-620, 72 h, 0.2 µM
[26] = system: SW-620; assay: Cytotoxicity against human SW620 cells at 200 nM after 72 hrs by SRB assay; format: cell-based; details: sw-620, 72 h, 0.2 µM
[27] = Cytotoxicity against human SW620/AD300 cells expressing p-glycoprotein at 200 nM after 72 hrs by SRB assay; format: cell-based; details: sw-620, 72 h, 0.2 µM
[28] = system: HepG2; assay: Cytotoxicity against human HepG2 cells at 200 nM after 72 hrs by SRB assay; format: cell-based; details: hepg2, 72 h, 0.2 µM
[29] = system: HepG2; assay: Cytotoxicity against human HepG2 cells expressing p-glycoprotein at 200 nM after 72 hrs by SRB assay; format: cell-based; details: hepg2, 72 h, 0.2 µM
[30] = system: MCF7; assay: Cytotoxicity against human MCF7 cells at 200 nM after 72 hrs by SRB assay; format: cell-based; details: mcf7, 72 h, 0.2 µM
[31] = Cytotoxicity against human MCF-7 FLV1000 cells expressing BCRP at 200 nM after 72 hrs by SRB assay; format: ADME, cell-based; details: mcf-7 flv1000, 72 h, 0.2 µM
[32] = molecular target: T2, Broad substrate specificity ATP-binding cassette transporter ABCG2; assay: Induction of 5D3 antibody binding to BCRP in human K562 cells at 0.5 uM preincubated for 10 mins followed by antibody addition measured after 45 mins by flow cytometry relative to tariquidar; format: cell-based; details: k562, 0.75 h
[33] = molecular target: T2, Broad substrate specificity ATP-binding cassette transporter ABCG2; assay: Induction of BCRP (unknown origin) expressed in High five insect cell membranes assessed as ATP hydrolysis after 10 mins by colorimetric ATPase assay
[34] = molecular target: T3, BCRP (ABCG2) (Homo sapiens, UniProt Q9UNQ0); assay: as §2; format: cell-based; details: K562/BCRP cells, probe pheophorbide-A
T3 sequence (Q9UNQ0 whole entry): T2 sequence (Q9UNQ0 whole entry)

Sequence of Multidrug resistance-associated protein 1 (P33527 whole entry): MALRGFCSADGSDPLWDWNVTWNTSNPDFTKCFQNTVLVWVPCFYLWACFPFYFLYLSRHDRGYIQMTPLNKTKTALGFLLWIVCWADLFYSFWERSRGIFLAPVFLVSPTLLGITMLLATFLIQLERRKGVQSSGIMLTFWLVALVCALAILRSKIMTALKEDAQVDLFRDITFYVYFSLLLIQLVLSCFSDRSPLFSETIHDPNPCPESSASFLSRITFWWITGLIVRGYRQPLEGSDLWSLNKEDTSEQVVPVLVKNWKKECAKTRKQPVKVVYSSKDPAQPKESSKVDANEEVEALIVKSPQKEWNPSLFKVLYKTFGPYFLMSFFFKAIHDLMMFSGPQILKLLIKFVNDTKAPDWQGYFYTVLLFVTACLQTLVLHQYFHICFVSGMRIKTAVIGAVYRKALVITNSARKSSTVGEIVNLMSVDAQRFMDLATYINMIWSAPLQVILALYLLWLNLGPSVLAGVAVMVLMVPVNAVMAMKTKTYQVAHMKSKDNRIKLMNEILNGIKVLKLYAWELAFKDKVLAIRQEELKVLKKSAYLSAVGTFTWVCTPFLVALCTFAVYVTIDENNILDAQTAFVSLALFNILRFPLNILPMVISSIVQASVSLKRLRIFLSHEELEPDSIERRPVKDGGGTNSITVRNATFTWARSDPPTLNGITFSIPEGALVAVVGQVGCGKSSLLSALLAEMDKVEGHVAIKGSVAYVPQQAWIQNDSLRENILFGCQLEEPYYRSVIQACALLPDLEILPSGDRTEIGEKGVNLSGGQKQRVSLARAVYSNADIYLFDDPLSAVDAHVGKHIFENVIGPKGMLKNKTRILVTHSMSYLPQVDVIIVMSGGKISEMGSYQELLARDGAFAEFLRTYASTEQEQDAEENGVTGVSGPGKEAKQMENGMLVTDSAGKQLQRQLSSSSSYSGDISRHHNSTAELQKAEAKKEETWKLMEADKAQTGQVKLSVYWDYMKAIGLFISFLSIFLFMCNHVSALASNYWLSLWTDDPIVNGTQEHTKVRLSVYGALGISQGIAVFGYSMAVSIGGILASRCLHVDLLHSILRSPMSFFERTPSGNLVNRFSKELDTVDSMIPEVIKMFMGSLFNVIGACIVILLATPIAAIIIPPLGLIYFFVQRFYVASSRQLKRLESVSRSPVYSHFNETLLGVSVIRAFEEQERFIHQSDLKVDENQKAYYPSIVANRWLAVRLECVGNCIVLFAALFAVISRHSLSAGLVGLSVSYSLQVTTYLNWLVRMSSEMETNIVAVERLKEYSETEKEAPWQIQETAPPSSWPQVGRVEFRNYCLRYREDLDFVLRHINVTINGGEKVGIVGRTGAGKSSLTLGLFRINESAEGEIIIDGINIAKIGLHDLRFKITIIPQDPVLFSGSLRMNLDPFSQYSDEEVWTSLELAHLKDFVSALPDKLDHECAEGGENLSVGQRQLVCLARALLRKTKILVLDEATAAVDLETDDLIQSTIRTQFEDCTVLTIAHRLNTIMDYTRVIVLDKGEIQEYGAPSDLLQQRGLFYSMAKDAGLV
T1 sequence (P08183 whole entry): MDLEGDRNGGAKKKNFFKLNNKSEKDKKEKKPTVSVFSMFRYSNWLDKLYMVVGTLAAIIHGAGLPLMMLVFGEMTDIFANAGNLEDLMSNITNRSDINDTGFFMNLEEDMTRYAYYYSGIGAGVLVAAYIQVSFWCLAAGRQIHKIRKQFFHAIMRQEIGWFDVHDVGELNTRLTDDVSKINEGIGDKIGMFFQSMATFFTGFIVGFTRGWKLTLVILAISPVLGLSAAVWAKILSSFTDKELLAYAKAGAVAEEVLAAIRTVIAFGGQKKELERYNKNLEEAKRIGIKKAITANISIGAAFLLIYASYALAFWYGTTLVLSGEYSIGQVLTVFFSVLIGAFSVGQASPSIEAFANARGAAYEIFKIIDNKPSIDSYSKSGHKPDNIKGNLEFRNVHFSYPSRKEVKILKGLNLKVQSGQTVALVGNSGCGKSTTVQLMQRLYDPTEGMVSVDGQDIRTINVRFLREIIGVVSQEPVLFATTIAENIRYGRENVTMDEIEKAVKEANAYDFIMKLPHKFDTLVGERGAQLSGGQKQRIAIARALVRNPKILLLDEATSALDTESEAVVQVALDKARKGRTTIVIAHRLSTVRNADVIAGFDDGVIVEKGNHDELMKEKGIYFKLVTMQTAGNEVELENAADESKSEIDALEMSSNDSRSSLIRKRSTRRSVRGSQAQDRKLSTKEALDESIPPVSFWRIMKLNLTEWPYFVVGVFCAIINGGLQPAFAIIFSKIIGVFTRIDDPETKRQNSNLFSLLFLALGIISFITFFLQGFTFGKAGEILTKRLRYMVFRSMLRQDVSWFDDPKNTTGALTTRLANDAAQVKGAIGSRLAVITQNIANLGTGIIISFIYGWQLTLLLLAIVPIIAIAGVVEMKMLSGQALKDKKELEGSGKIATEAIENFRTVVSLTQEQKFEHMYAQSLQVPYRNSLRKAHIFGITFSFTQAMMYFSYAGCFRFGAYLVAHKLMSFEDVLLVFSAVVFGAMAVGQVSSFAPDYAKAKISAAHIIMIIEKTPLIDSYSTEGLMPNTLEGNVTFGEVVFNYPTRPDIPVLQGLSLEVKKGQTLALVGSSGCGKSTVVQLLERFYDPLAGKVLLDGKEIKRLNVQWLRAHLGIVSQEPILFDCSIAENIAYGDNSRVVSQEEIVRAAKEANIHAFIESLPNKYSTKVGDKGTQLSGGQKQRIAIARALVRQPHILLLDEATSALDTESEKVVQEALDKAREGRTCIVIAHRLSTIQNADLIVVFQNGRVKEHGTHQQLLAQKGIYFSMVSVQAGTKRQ
Sequence of P-glycoprotein (ABCB1) (P08183 whole entry): as above

COc1cc2c(cc1OC)CN(CCc1ccc(NC(=O)c3ccccc3N(S(=O)(=O)c3ccc(Br)cc3)S(=O)(=O)c3ccc(Br)cc3)cc1)CC2
IC50 [1]: > 100 µM
IC50 [2]: > 100 µM
IC50 [3]: > 100 µM
IC50 [4]: > 100 µM
IC50 [5]: > 5 µM
Activity [6]: Non-toxic
inhibition (INH) [7]: Active
inhibition (INH) [8]: Dose-dependent effect
Activity [9]: Non-toxic
inhibition (INH) [10]: Active
inhibition (INH) [11]: Not Active
fold change (FC) [12]: 1.3
fold change (FC) [13]: 36
Activity [14]: Non-toxic
Activity [15]: Non-toxic
Activity [16]: 47%
inhibition [17]: Dose-dependent effect

COc1cc2c(cc1OC)CN(CCc1ccc(NC(=O)c3ccccc3NC(=O)c3cnc4ccccc4c3)cc1)CC2
IC50 [1]: > 100 µM
IC50 [2]: > 100 µM
IC50 [3]: > 100 µM
IC50 [4]: > 100 µM
IC50 [5]: > 5 µM
IC50 [6]: 50 µM
inhibition at 1 h, 0.5 µM [18]: 90.5%
inhibition (INH) [8]: Dose-dependent effect
Activity [9]: Non-toxic
inhibition (INH) [10]: Active
inhibition (INH) [19]: Active
inhibition (INH) [11]: Not Active
fold change (FC) [12]: 0.9
fold change (FC) [13]: 2.8
fold change (FC) [20]: 1.3
fold change (FC) [21]: 2.9
fold change (FC) [22]: 0.29
fold change (FC) [23]: 0.38
fold change (FC) [24]: 0.36
fold change (FC) [25]: 6.23
Activity [26]: Non-toxic
Activity [27]: Non-toxic
Activity [28]: Non-toxic
Activity [29]: Non-toxic
Activity [30]: Non-toxic
Activity [31]: Non-toxic
Activity [14]: Non-toxic
Activity [15]: Non-toxic
Activity [16]: 93.2%
Activity [32]: 90.7%
inhibition [17]: Dose-dependent effect
Activity [33]: Active

COc1cc2c(cc1OC)CN(CCc1ccc(NC(=O)c3ccccc3NS(=O)(=O)c3ccc(C(C)(C)C)cc3)cc1)CC2
IC50 [1]: > 100 µM
IC50 [2]: > 100 µM
IC50 [3]: > 100 µM
IC50 [4]: > 100 µM
IC50 [5]: > 100 µM
inhibition (INH) [10]: Active
inhibition (INH) [11]: Not Active
Activity [16]: inactive
Activity [32]: Not Active

COc1cc2c(cc1OC)CN(CCc1ccc(NC(=O)c3ccccc3NC(=O)/C=C/c3ccccc3)cc1)CC2
IC50 [1]: > 100 µM
IC50 [2]: > 100 µM
IC50 [3]: > 100 µM
IC50 [4]: > 100 µM
IC50 [5]: > 20 µM
IC50 [6]: 100 µM
inhibition (INH) [7]: Active
inhibition (INH) [8]: Dose-dependent effect
Activity [9]: Non-toxic
inhibition at 1 h, 0.5 µM [34]: 60%
inhibition (INH) [11]: Not Active
fold change (FC) [12]: 1.6
fold change (FC) [13]: 33
fold change (FC) [20]: 1.5
fold change (FC) [21]: 64
Activity [30]: Non-toxic
Activity [31]: Non-toxic
Activity [14]: Non-toxic
Activity [15]: Non-toxic
Activity [16]: 46.3%
Activity [32]: 118.6%
inhibition [17]: Dose-dependent effect
Activity [33]: Active

COc1cc2c(cc1OC)CN(CCc1ccc(NC(=O)c3ccccc3NC(=O)c3ccco3)cc1)CC2
IC50 [1]: > 100 µM
IC50 [2]: > 100 µM
IC50 [3]: > 100 µM
IC50 [4]: > 100 µM
IC50 [5]: > 100 µM
Activity [6]: Non-toxic
inhibition (INH) [7]: Active
inhibition (INH) [8]: Dose-dependent effect
Activity [9]: Non-toxic
inhibition (INH) [19]: Active
inhibition (INH) [11]: Not Active
fold change (FC) [12]: 1.3
fold change (FC) [13]: 46
fold change (FC) [20]: 1.4
fold change (FC) [21]: 2.1
fold change (FC) [22]: 1.09
fold change (FC) [23]: 3
fold change (FC) [24]: 2.1
fold change (FC) [25]: 2.63
Activity [26]: Non-toxic
Activity [27]: Non-toxic
Activity [28]: Non-toxic
Activity [29]: Non-toxic
Activity [30]: Non-toxic
Activity [31]: Non-toxic
Activity [14]: Non-toxic
Activity [15]: Non-toxic
Activity [16]: 35.5%
Activity [32]: 149.4%
inhibition [17]: Dose-dependent effect
Activity [33]: Active

COc1cc2c(cc1OC)CN(CCc1ccc(NC(=O)c3ccccc3NC(=O)c3ccc(F)cc3[N+](=O)[O-])cc1)CC2
IC50 [1]: > 100 µM
IC50 [2]: > 100 µM
IC50 [3]: > 100 µM
IC50 [4]: > 100 µM
IC50 [5]: > 10 µM
IC50 [6]: 100 µM
inhibition (INH) [7]: Active
inhibition (INH) [8]: Dose-dependent effect
Activity [9]: Non-toxic
inhibition at 1 h, 0.5 µM [34]: 60%
inhibition (INH) [11]: Not Active
fold change (FC) [12]: 1.1
fold change (FC) [13]: 35
fold change (FC) [20]: 1.7
fold change (FC) [21]: 46
fold change (FC) [22]: 0.76
fold change (FC) [23]: 0.36
fold change (FC) [24]: 1.6
fold change (FC) [25]: 3.62
Activity [26]: Non-toxic
Activity [27]: Non-toxic
Activity [28]: Non-toxic
Activity [29]: Non-toxic
Activity [30]: Non-toxic
Activity [31]: Non-toxic
Activity [14]: Non-toxic
Activity [15]: Non-toxic
Activity [16]: 57.3%
Activity [32]: 119.1%
inhibition [17]: Dose-dependent effect
Activity [33]: Active
